This note sets out measurements from paper PMC10319115, “CL-705G: a novel chemical Kir6.2-specific KATP channel opener” (Frontiers in Pharmacology, 2023).

Test [1] concerns T1, Kir6.2/SUR2A.
T1 construct: gene KCNJ11; hetero-octamer
Description: Tl+ flux (FluxOR II), initial rate, HEK-293. Conditions: opener; 10 min preincubation. Format: cell-based.

Test [2] addresses T2, Kir3.1/Kir3.4 (Mus musculus, UniProt P48548+P63250).
T2 construct: gene Kcnj3; heterotetramer expressed from cRNA in Xenopus laevis oocytes
T2 sequence (P63250 1-501): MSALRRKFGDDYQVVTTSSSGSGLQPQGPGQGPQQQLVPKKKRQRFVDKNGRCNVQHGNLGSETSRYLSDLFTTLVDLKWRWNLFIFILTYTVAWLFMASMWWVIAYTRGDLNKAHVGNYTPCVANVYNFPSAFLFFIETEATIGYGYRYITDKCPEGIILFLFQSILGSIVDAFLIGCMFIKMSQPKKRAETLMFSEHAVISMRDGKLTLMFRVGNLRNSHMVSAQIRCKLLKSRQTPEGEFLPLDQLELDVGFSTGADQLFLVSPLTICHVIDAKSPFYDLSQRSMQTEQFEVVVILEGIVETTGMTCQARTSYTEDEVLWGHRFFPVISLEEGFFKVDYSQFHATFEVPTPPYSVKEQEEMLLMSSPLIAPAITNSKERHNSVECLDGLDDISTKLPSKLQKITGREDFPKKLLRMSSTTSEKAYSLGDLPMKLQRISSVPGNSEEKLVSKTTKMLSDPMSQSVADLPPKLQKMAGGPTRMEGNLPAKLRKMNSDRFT
T2 sequence (P48548 1-419): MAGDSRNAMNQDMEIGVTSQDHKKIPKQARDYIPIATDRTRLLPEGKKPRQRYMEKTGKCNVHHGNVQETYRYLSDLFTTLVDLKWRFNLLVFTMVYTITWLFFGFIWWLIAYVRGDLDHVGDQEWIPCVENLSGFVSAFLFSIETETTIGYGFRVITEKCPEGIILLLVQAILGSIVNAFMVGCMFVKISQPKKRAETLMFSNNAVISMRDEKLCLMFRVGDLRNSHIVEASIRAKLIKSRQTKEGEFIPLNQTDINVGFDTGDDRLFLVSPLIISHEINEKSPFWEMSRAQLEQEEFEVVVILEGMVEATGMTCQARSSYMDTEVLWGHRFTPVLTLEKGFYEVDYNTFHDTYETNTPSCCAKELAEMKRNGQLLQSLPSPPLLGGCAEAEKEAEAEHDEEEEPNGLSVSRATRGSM
Description: two-electrode voltage clamp, Xenopus oocytes. Particulars: inhibition; high K+ (96 mM) pH 7.3. Format: cell-based. (In general: Two-electrode voltage clamp is typically applied to oocytes expressing channels or transporters.)

By EC50 is commonly meant the concentration at which the effect is half-maximal. Low readings indicate greater potency, high ones weaker potency.

With `CC(NC(=NC#N)Nc1ccncc1)C(C)(C)C` (centres unmarked) [pinacidil], a half-maximal response in test [1] (EC50) required 11 µM. In the case of `O=C(c1cc(=O)[nH][nH]1)N1CCCC(CCc2ccccc2C(F)(F)F)C1` (centres unmarked) [CL-705G, 5-[(3-{2-[2-(trifluoromethyl)phenyl]ethyl}-1-piperidinyl)carbonyl]-1,2-dihydro-3H-pyrazol-3-one], the “% reduction of current at 100 μM” value in test [2] is given as 17%.
